Test results: paper doi:10.1101/2023.10.03.560722, “Drug Discovery in Low Data Regimes: Leveraging a Computational Pipeline for the Discovery of Novel SARS-CoV-2 Nsp14-MTase Inhibitors” (bioRxiv, 2024)
Like-named read-outs stand apart in the source and are kept apart here.

Tests used:
SARS-CoV-2 = assay type: cell-based; conditions: Calu-3 cells, lung epithelial SARS-CoV-2 infection model
G9a = target: T1, G9a (Homo sapiens, UniProt Q96KQ7); assay: human MTase selectivity panel; assay type: biochemical
T1 sequence (Q96KQ7 1-1210): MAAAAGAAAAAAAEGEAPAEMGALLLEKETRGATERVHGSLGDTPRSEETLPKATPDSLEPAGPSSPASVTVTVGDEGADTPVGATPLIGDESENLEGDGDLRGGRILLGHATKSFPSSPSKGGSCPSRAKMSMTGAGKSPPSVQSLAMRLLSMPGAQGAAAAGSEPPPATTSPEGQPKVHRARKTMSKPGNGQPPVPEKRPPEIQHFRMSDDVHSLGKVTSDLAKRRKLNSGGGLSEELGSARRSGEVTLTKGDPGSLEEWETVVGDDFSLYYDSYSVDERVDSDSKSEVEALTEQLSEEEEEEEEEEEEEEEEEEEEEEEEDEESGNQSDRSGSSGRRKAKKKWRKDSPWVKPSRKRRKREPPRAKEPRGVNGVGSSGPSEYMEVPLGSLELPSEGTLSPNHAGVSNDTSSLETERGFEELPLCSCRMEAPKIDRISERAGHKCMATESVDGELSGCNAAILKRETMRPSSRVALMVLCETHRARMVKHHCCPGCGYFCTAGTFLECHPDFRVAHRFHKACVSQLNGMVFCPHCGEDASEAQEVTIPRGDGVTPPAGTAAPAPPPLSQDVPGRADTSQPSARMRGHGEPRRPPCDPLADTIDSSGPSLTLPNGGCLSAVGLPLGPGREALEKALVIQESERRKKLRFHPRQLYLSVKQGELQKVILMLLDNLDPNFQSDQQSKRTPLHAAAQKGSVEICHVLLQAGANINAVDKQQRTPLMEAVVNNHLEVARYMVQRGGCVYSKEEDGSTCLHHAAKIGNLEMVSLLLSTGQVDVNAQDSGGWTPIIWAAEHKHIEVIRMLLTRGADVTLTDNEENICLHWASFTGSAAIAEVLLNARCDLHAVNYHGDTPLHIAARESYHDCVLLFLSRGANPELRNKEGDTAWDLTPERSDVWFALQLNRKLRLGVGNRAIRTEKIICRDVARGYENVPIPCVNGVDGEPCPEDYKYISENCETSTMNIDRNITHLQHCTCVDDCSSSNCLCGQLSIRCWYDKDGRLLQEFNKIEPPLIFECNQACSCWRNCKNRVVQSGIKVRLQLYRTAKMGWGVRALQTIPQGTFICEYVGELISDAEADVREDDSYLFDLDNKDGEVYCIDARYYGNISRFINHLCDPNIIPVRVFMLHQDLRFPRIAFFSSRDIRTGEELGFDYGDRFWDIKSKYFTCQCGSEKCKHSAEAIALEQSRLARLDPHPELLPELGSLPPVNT

SUV420H2 = SUV420H2 (Homo sapiens, UniProt Q86Y97); assay: human MTase selectivity panel; assay type: biochemical
PRMT4 = target: T2, PRMT4 (Homo sapiens, UniProt Q86X55); assay: human MTase selectivity panel; assay type: biochemical
T2 sequence (Q86X55 1-608): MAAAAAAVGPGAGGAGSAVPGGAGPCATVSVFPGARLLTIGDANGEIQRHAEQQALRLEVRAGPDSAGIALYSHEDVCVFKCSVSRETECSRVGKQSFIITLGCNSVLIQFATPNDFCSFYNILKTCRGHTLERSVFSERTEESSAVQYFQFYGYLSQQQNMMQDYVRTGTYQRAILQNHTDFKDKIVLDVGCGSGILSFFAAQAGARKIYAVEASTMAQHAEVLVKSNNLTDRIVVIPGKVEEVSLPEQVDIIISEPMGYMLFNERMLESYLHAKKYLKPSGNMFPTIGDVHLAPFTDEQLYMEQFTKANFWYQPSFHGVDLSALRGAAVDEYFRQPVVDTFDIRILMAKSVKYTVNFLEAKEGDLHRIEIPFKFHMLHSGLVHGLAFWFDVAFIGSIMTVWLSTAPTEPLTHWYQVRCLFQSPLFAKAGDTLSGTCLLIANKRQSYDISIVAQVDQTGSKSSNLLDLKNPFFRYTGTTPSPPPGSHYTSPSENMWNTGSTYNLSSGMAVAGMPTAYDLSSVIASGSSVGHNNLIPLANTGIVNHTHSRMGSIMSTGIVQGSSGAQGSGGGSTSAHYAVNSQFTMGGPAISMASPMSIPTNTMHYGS

PRMT5 = PRMT5 (Homo sapiens, UniProt O14744); assay: human MTase selectivity panel; assay type: biochemical
PRMT8 = PRMT8 (Homo sapiens, UniProt Q9NR22); assay: human MTase selectivity panel; assay type: biochemical
SETDB1 = SETDB1 (Homo sapiens, UniProt Q15047); assay: human MTase selectivity panel; assay type: biochemical
SETD2 = SETD2 (Homo sapiens, UniProt Q9BYW2); assay: human MTase selectivity panel; assay type: biochemical
BCDIN3D = target: T3, BCDIN3D (Homo sapiens, UniProt Q7Z5W3); assay: human MTase selectivity panel; assay type: biochemical
T3 sequence (Q7Z5W3 1-292): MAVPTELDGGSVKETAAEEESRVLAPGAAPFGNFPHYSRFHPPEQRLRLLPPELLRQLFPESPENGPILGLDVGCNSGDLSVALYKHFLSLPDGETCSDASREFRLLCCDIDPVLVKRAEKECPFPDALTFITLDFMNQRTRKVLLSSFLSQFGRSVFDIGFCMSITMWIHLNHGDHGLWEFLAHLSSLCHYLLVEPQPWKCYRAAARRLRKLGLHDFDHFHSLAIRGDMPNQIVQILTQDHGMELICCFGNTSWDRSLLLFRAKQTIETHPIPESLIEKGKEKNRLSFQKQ

DOT1L = DOT1L (Homo sapiens, UniProt Q8TEK3); assay: human MTase selectivity panel; assay type: biochemical
[1] = average ± SD, read-out: Activity (%) at 10 µM Average
[2] = read-out: Activity (%) at 10 µM Replicate 1
[3] = read-out: Activity (%) at 10 µM Replicate 2
[4] = read-out: Activity (%) at 10 µM Replicate 3

SETD2, sequence (Q9BYW2 whole entry): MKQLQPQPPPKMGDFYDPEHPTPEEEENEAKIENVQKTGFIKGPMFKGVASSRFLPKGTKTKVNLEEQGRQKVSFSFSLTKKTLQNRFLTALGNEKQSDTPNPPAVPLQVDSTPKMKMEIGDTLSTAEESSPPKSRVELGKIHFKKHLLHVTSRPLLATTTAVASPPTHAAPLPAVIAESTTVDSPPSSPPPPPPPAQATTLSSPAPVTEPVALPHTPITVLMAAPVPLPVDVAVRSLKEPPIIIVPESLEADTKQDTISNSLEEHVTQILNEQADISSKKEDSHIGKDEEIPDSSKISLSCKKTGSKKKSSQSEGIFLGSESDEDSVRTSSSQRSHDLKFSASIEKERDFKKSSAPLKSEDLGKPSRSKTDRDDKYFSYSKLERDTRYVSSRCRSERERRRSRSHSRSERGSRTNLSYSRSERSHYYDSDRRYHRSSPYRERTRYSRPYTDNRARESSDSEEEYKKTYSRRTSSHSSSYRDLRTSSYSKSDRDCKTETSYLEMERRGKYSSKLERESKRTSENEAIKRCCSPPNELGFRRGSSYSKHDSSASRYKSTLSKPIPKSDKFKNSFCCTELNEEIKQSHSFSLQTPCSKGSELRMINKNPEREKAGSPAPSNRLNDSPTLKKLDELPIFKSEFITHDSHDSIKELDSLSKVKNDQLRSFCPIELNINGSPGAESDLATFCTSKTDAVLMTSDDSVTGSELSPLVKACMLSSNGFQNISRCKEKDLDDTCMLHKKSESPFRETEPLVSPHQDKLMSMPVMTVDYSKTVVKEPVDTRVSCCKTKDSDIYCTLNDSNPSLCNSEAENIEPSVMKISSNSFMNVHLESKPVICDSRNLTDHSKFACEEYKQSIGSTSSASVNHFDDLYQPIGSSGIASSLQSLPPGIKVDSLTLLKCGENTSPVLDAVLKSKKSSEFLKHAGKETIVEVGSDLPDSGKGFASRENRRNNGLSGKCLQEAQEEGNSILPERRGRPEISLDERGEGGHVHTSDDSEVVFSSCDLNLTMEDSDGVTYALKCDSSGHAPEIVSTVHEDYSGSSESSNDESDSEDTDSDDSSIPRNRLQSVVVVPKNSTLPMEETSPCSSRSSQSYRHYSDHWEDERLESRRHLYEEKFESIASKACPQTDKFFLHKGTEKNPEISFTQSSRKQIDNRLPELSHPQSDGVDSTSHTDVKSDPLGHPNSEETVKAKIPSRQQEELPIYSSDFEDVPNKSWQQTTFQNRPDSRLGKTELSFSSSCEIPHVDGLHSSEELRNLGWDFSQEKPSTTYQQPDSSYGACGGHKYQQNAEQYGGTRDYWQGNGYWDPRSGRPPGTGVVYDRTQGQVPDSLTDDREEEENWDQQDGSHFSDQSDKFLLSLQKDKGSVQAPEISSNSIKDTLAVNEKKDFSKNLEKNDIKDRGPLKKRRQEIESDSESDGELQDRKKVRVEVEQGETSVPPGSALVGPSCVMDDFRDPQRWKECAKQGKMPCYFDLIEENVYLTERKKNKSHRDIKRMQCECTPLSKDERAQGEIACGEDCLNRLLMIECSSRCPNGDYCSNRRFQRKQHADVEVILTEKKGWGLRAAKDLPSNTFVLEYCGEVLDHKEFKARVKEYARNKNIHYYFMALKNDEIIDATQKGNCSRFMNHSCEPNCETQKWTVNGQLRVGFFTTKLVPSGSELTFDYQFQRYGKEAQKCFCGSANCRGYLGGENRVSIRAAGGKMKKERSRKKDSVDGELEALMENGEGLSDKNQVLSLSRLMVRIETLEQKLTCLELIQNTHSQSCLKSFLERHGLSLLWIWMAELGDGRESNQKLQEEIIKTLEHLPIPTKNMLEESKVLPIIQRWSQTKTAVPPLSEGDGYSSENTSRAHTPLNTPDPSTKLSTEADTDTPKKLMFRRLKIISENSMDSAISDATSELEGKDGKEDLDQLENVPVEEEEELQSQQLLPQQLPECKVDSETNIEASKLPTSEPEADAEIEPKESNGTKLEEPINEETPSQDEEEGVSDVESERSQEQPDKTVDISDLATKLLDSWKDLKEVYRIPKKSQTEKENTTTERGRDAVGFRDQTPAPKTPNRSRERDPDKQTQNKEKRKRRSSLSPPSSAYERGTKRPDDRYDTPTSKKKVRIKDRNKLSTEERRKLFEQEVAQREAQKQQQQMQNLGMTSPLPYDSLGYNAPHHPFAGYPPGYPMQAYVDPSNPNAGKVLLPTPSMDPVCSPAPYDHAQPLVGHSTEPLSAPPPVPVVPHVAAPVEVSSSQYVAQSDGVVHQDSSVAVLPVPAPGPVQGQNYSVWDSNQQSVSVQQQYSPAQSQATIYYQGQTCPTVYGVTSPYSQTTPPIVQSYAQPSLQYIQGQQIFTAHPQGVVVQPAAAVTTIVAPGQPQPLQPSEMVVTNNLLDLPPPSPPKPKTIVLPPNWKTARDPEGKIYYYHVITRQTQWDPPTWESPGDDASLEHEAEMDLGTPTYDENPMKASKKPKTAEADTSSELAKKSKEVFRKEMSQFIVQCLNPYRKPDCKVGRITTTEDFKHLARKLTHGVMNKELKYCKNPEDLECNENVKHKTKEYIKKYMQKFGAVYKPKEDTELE
SUV420H2, sequence (Q86Y97 whole entry): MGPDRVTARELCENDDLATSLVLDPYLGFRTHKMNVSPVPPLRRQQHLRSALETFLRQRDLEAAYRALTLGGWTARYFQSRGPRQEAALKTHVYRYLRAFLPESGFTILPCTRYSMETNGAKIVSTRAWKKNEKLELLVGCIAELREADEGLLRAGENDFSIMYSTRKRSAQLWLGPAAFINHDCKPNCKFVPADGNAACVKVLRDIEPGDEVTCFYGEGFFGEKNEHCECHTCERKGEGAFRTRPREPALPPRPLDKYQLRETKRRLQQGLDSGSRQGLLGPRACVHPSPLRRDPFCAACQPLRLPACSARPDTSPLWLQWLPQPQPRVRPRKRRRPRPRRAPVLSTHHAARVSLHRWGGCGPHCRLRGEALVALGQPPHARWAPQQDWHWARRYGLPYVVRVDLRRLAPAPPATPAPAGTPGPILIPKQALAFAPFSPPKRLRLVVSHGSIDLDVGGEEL
PRMT5, sequence (O14744 whole entry): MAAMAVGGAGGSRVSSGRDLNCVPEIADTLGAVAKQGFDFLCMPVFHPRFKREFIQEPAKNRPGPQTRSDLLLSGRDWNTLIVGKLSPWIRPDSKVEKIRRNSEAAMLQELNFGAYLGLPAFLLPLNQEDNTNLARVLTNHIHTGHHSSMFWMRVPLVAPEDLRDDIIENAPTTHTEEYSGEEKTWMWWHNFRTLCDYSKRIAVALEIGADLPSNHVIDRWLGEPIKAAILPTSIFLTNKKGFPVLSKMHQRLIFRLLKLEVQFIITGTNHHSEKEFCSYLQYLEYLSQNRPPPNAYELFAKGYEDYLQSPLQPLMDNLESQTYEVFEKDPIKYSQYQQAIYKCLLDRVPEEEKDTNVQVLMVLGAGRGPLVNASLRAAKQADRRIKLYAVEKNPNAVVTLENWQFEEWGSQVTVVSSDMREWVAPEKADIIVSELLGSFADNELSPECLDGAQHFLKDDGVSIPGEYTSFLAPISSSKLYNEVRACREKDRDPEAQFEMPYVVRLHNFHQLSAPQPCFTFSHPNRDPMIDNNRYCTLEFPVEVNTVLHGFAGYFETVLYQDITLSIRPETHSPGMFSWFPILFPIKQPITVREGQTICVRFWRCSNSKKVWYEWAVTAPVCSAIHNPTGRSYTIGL
PRMT5, sequence (Q9BQA1 whole entry partner): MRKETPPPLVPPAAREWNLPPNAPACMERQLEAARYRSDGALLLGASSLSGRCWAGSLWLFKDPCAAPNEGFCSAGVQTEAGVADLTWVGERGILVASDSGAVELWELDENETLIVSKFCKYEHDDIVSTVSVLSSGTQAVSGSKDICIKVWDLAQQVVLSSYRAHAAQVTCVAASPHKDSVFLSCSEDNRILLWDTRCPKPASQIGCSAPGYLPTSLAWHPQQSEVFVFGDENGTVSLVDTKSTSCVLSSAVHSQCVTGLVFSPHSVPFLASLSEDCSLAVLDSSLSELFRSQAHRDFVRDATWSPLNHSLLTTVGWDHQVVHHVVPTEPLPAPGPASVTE
PRMT8, sequence (Q9NR22 whole entry): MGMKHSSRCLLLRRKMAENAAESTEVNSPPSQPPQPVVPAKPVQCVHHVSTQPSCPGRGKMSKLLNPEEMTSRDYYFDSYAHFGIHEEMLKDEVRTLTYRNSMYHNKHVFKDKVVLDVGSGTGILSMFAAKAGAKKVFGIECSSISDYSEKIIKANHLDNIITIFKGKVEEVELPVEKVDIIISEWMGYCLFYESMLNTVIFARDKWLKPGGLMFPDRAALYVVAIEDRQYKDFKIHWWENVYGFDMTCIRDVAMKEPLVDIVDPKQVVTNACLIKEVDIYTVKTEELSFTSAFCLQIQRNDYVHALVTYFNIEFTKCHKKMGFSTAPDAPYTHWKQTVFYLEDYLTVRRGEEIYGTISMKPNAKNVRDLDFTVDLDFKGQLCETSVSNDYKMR

In the case of `Nc1ncnc2c1ncn2[C@@H]1O[C@H](CSCc2ccc(Cl)cc2)[C@@H](O)[C@H]1O` [NSC620333], the anti-SARS-CoV-2 activity (SARS-CoV-2) is reported as “demonstrated anti-SARS-CoV-2 activity”, the activity at 10 µM (G9a; [1]) is reported as 89 ± 9% and the activity at 10 µM (G9a; [2]) is reported as 97%. It also gave an activity at 10 µM (G9a; [3]) of 79%, an activity at 10 µM (G9a; [4]) of 91% and an activity at 10 µM (SUV420H2; [1]) of 96 ± 9%. The activity at 10 µM (SUV420H2; [2]) was 96%, the activity at 10 µM (SUV420H2; [3]) was 104% and the activity at 10 µM (SUV420H2; [4]) was 86%. For the same compound, the activity at 10 µM (PRMT4; [1]) was 97 ± 3%, the activity at 10 µM (PRMT4; [2]) was 96% and the activity at 10 µM (PRMT4; [3]) was 95%. It also gave an activity at 10 µM (PRMT4; [4]) of 101%, an activity at 10 µM (PRMT5; [1]) of 63 ± 7% and an activity at 10 µM (PRMT5; [2]) of 69%. For the same compound, the activity at 10 µM (PRMT5; [3]) was 64%, the activity at 10 µM (PRMT5; [4]) was 55% and the activity at 10 µM (PRMT8; [1]) was 96 ± 3%. The activity at 10 µM (PRMT8; [2]) was 97%, the activity at 10 µM (PRMT8; [3]) was 99% and the activity at 10 µM (PRMT8; [4]) was 93%. For the same compound, the activity at 10 µM (SETDB1; [1]) was 103 ± 3%, the activity at 10 µM (SETDB1; [2]) was 104% and the activity at 10 µM (SETDB1; [3]) was 106%. It also gave an activity at 10 µM (SETDB1; [4]) of 100%, an activity at 10 µM (SETD2; [1]) of 103 ± 4% and an activity at 10 µM (SETD2; [2]) of 99%. For the same compound, the activity at 10 µM (SETD2; [3]) was 103%, the activity at 10 µM (SETD2; [4]) was 107% and the activity at 10 µM (BCDIN3D; [1]) was 62 ± 5%. The activity at 10 µM (BCDIN3D; [2]) was 57%, the activity at 10 µM (BCDIN3D; [3]) was 66% and the activity at 10 µM (BCDIN3D; [4]) was 64%. It also gave an activity at 10 µM (DOT1L; [1]) of 93 ± 9%, an activity at 10 µM (DOT1L; [2]) of 103% and an activity at 10 µM (DOT1L; [3]) of 90%. It also gave an activity at 10 µM (DOT1L; [4]) of 86%.
